Reference: USRE39591E1, “6-O-substituted ketolides having antibacterial activity” (Abbott Laboratories, priority 1996, dated 2007)
≈ marks a conversion by molar mass, not a printed value.

Tested on: up to 32 different microorganisms
Assay: in vitro antibacterial activity (MIC), agar dilution on Brain Heart Infusion (BHI) agar with Steers replicator
Type: cell-based
Conditions: unit assumed
In short: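 Twelve plates carried successive aqueous dilutions of test compound in BHI agar; inocula were 1:100 dilutions (1:10 for slow growers such as Micrococcus, Streptococcus), incubated 35°-37° C for 20 to 24 hours. MIC was the lowest concentration giving no growth, slight haze, or sparse isolated colonies versus growth control.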

With CCC1OC(=O)C(C)C(=O)C(C)C(OC2OC(C)CC(N(C)C)C2O)C(C)(OCC=Cc2ccc3ncc(-c4cccnc4)cc3c2)CC(C)C(=O)C(C)C2NC(=O)OC12C (stereo not drawn) [Example 274] the MIC (organism code AA) was 0.1 µg/mL (≈ 0.119 µM), the MIC (organism code BB) was 0.1 µg/mL (≈ 0.119 µM) and the MIC (organism code CC) was greater than 100 µg/mL. For the same compound, the MIC (organism code DD) was 0.1 µg/mL (≈ 0.119 µM), the MIC (organism code EE) was 0.1 µg/mL (≈ 0.119 µM) and the MIC (organism code FF) was 0.05 µg/mL (≈ 0.0593 µM). The MIC (organism code GG) was greater than 100 µg/mL, the MIC (organism code HH) was 0.1 µg/mL (≈ 0.119 µM) and the MIC (organism code II) was 0.05 µg/mL (≈ 0.0593 µM). The MIC (organism code JJ) was 0.01 µg/mL (≈ 0.0119 µM), the MIC (organism code KK) was 0.01 µg/mL (≈ 0.0119 µM) and the MIC (organism code LL) was 0.01 µg/mL (≈ 0.0119 µM). The MIC (organism code MM) was 6.2 µg/mL (≈ 7.35 µM), the MIC (organism code NN) was 0.1 µg/mL (≈ 0.119 µM) and the MIC (organism code OO) was 0.01 µg/mL (≈ 0.0119 µM). The MIC (organism code PP) was 0.1 µg/mL (≈ 0.119 µM), the MIC (organism code QQ) was greater than 100 µg/mL and the MIC (organism code RR) was 0.2 µg/mL (≈ 0.237 µM). It also gave an MIC (organism code SS) greater than 100 µg/mL, an MIC (organism code TT) greater than 100 µg/mL and an MIC (organism code UU) of 0.78 µg/mL (≈ 0.925 µM). For the same compound, the MIC (organism code VV) was 0.05 µg/mL (≈ 0.0593 µM), the MIC (organism code WW) was 4 µg/mL (≈ 4.74 µM) and the MIC (organism code XX) was no more than 0.004 µg/mL. For the same compound, the MIC (organism code YY) was no more than 0.004 µg/mL, the MIC (organism code ZZ) was 8 µg/mL (≈ 9.49 µM) and the MIC (organism code ZZA) was 0.25 µg/mL (≈ 0.297 µM).

Work on CC[C@H]1OC(=O)[C@H](C)C(=O)[C@H](C)[C@@H](O[C@@H]2O[C@H](C)C[C@H](N(C)C)[C@H]2O)[C@@](C)(OCC=NOCc2cnc3ccccc3c2)C[C@@H](C)C(=O)[C@H](C)[C@H]2NC(=O)O[C@@]21C [Example 233, Compound of Formula (IX): L is CO, T is NH, R is —CH2CH═NOCH2(3-quinolyl)] yielded an MIC (organism code AA) of 0.1 µg/mL, an MIC (organism code BB) of 0.1 µg/mL and an MIC (organism code CC) greater than 100 µg/mL. It also gave an MIC (organism code DD) of 0.2 µg/mL, an MIC (organism code EE) of 0.2 µg/mL and an MIC (organism code FF) of 0.1 µg/mL. For the same compound, the MIC (organism code GG) was greater than 100 µg/mL, the MIC (organism code HH) was 0.2 µg/mL and the MIC (organism code II) was 0.05 µg/mL. It also gave an MIC (organism code JJ) of 0.02 µg/mL, an MIC (organism code KK) of 0.02 µg/mL and an MIC (organism code LL) of 0.02 µg/mL. For the same compound, the MIC (organism code MM) was 100 µg/mL, the MIC (organism code NN) was 0.1 µg/mL and the MIC (organism code OO) was 0.02 µg/mL. It also gave an MIC (organism code PP) of 0.3 µg/mL, an MIC (organism code QQ) of 50 µg/mL and an MIC (organism code RR) of 0.39 µg/mL. For the same compound, the MIC (organism code SS) was 50 µg/mL, the MIC (organism code TT) was greater than 100 µg/mL and the MIC (organism code UU) was 0.78 µg/mL. For the same compound, the MIC (organism code VV) was 0.05 µg/mL, the MIC (organism code WW) was 2 µg/mL and the MIC (organism code XX) was 0.03 µg/mL. It also gave an MIC (organism code YY) of 0.03 µg/mL, an MIC (organism code ZZ) of 64 µg/mL and an MIC (organism code ZZA) of 0.25 µg/mL.

CC[C@H]1OC(=O)[C@H](C)C(=O)[C@H](C)[C@@H](O[C@@H]2O[C@H](C)C[C@H](N(C)C)[C@H]2O)[C@@](C)(OCC=Cc2ccc3ncc(Br)cc3c2)C[C@@H](C)C(=O)[C@H](C)[C@H]2NC(=O)O[C@@]21C [Example 219, R is —CH2CH═CH-(3-bromo-6-quinolyl)] was tested, and the MIC (organism code AA) was 0.2 µg/mL (≈ 0.237 µM), the MIC (organism code BB) was 0.2 µg/mL (≈ 0.237 µM) and the MIC (organism code CC) was 100 µg/mL (≈ 118 µM). For the same compound, the MIC (organism code DD) was 0.2 µg/mL (≈ 0.237 µM), the MIC (organism code EE) was 0.2 µg/mL (≈ 0.237 µM) and the MIC (organism code FF) was 0.2 µg/mL (≈ 0.237 µM). For the same compound, the MIC (organism code GG) was 100 µg/mL (≈ 118 µM), the MIC (organism code HH) was 0.2 µg/mL (≈ 0.237 µM) and the MIC (organism code II) was 0.05 µg/mL (≈ 0.0592 µM). The MIC (organism code JJ) was no more than 0.005 µg/mL, the MIC (organism code KK) was 0.02 µg/mL (≈ 0.0237 µM) and the MIC (organism code LL) was 0.02 µg/mL (≈ 0.0237 µM). For the same compound, the MIC (organism code MM) was 3.1 µg/mL (≈ 3.67 µM), the MIC (organism code NN) was 0.2 µg/mL (≈ 0.237 µM) and the MIC (organism code OO) was 0.05 µg/mL (≈ 0.0592 µM). It also gave an MIC (organism code PP) of 0.2 µg/mL (≈ 0.237 µM), an MIC (organism code QQ) of 100 µg/mL (≈ 118 µM) and an MIC (organism code RR) of 0.78 µg/mL (≈ 0.923 µM). The MIC (organism code SS) was greater than 100 µg/mL, the MIC (organism code TT) was greater than 100 µg/mL and the MIC (organism code UU) was 0.39 µg/mL (≈ 0.462 µM). The MIC (organism code VV) was 0.05 µg/mL (≈ 0.0592 µM), the MIC (organism code WW) was 2 µg/mL (≈ 2.37 µM) and the MIC (organism code XX) was 0.03 µg/mL (≈ 0.0355 µM). The MIC (organism code YY) was 0.03 µg/mL (≈ 0.0355 µM), the MIC (organism code ZZ) was 2 µg/mL (≈ 2.37 µM) and the MIC (organism code ZZA) was 0.25 µg/mL (≈ 0.296 µM).

With CCC1OC(=O)C(C)C(=O)C(C)C(OC2OC(C)CC(N(C)C)C2O)C(C)(OCC=Cc2ccc3[nH]ccc3c2)CC(C)C(=O)C(C)C2NC(=O)OC12C (stereo not drawn) [Example 190, R is —CH2CH═CH-(5-indolyl)] the MIC (Candida albicans CCH 442 (code TT)) was greater than 100 µg/mL, the MIC (Enterococcus faecism ATCC 8043 (code II)) was 0.02 µg/mL (≈ 0.0265 µM) and the MIC (Escherichia coli DC-2 (code SS)) was 100 µg/mL (≈ 133 µM). It also gave an MIC (Escherichia coli JUHL (code QQ)) of 100 µg/mL (≈ 133 µM), an MIC (Escherichia coli SS (code RR)) of 0.2 µg/mL (≈ 0.265 µM) and an MIC (Haemophilis influenzae DILL AMP R (code WW)) of 4 µg/mL (≈ 5.31 µM). For the same compound, the MIC (Micrococcus luteus ATCC 4698 (code PP)) was 0.1 µg/mL (≈ 0.133 µM), the MIC (Micrococcus luteus ATCC 9341 (code OO)) was 0.01 µg/mL (≈ 0.0133 µM) and the MIC (Mycobacterium smegmatis ATCC 114 (code UU)) was 0.78 µg/mL (≈ 1.03 µM). For the same compound, the MIC (Nocardia Asteroides ATCC9970 (code VV)) was 0.1 µg/mL (≈ 0.133 µM), the MIC (Staphylococcus aureus 1775 (code GG)) was greater than 100 µg/mL and the MIC (Staphylococcus aureus A5177 (code BB)) was 0.05 µg/mL (≈ 0.0663 µM). The MIC (Staphylococcus aureus A-5278 (code CC)) was greater than 100 µg/mL, the MIC (Staphylococcus aureus ATCC 6538P (code AA)) was 0.05 µg/mL (≈ 0.0663 µM) and the MIC (Staphylococcus aureus CMX 553 (code FF)) was 0.02 µg/mL (≈ 0.0265 µM). It also gave an MIC (Staphylococcus aureus CMX 642A (code DD)) of 0.05 µg/mL (≈ 0.0663 µM), an MIC (Staphylococcus aureus NCTC10649M (code EE)) of 0.02 µg/mL (≈ 0.0265 µM) and an MIC (Staphylococcus epidermidis 3519 (code HH)) of 0.05 µg/mL (≈ 0.0663 µM). It also gave an MIC (Streptococcus Pneumonia 5649 (code ZZA)) of 0.5 µg/mL (≈ 0.663 µM), an MIC (Streptococcus Pneumonia 5979 (code ZZ)) greater than 128 µg/mL and an MIC (Streptococcus Pneumonia ATCC6303 (code XX)) of 0.06 µg/mL (≈ 0.0796 µM). It also gave an MIC (Streptococcus Pneumonia GYR 1171 (code YY)) of 0.03 µg/mL (≈ 0.0398 µM), an MIC (Streptococcus agalactiae CMX 508 (code KK)) of no more than 0.005 µg/mL and an MIC (Streptococcus bovis A-5169 (code JJ)) of no more than 0.005 µg/mL. The MIC (Streptococcus pyogenes 930 (code MM)) was 12.5 µg/mL (≈ 16.6 µM), the MIC (Streptococcus pyogenes EES61 (code LL)) was no more than 0.005 µg/mL and the MIC (Streptococcus pyogenes PIU 2548 (code NN)) was 0.1 µg/mL (≈ 0.133 µM).

CCC1OC(=O)C(C)C(=O)C(C)C(OC2OC(C)CC(N(C)C)C2O)C(C)(OCC=Cc2cccc3c([N+](=O)[O-])cccc23)CC(C)C(=O)C(C)C2NC(=O)OC12C (stereo not drawn) [Example 281, Compound of Formula (IX): L is CO, T is NH2, R is —CH2CH═CH-(5-nitronaphthyl)] gave an MIC (organism code AA) of 0.78 µg/mL, an MIC (organism code BB) of 0.78 µg/mL and an MIC (organism code CC) greater than 100 µg/mL. The MIC (organism code DD) was 0.78 µg/mL, the MIC (organism code EE) was 0.78 µg/mL and the MIC (organism code FF) was 0.78 µg/mL. It also gave an MIC (organism code GG) greater than 100 µg/mL, an MIC (organism code HH) of 0.78 µg/mL and an MIC (organism code II) of 0.39 µg/mL. It also gave an MIC (organism code JJ) of 0.05 µg/mL, an MIC (organism code KK) of 0.1 µg/mL and an MIC (organism code LL) of 0.1 µg/mL. The MIC (organism code MM) was 50 µg/mL, the MIC (organism code NN) was 0.39 µg/mL and the MIC (organism code OO) was 0.2 µg/mL. It also gave an MIC (organism code PP) of 0.78 µg/mL, an MIC (organism code QQ) greater than 100 µg/mL and an MIC (organism code RR) of 3.1 µg/mL. The MIC (organism code SS) was greater than 100 µg/mL, the MIC (organism code TT) was greater than 100 µg/mL and the MIC (organism code UU) was 3.1 µg/mL. The MIC (organism code VV) was 3.1 µg/mL, the MIC (organism code WW) was 32 µg/mL and the MIC (organism code XX) was 0.25 µg/mL. It also gave an MIC (organism code YY) of 0.25 µg/mL, an MIC (organism code ZZ) of 64 µg/mL and an MIC (organism code ZZA) of 1 µg/mL.
